According to patent US10407467B2, “Polymyxin derivatives and their use in combination therapy together with different antibiotics” (priority 2013, dated 2019):
Where a name gives a salt, the structure may show the parent alone. Numbered stars: 1 amine (or outer) side, 2 acyl side, 3 side chain; on linkers, the order of the positions; unused ones are H or OH. Bridge positions count the residues as written; N and C are the ends. Square brackets hold non-standard residues; d marks the D form. Peptide text beside a SMILES is read from it. * marks the point of attachment. ξ: configuration not given here. Acetyl(cis-4-NH-cyclohexyl) = O=C(C[C@H]1CC[C@@H](N[*:1])CC1)[*:2]; ξHexahydromandeloyl = O=C(C(O)C1CCCCC1)*; X8 = N[C@@H]1CC[C@H](C(=O)*)C1; Thr(3ξ) = CC(O)[C@H](N)C(=O)O; X5 = O=C(C[C@@H]1CCCCN1)*; Dab = NCC[C@H](N)C(=O)O

Columns and labels:
Test in all cases: MIC, compound in combination with a second agent (broth microdilution)
Type in all cases: cell-based
Settings in all cases: 1:1 (wt:wt) combination with Rifampicin
Acinetobacter baumannii = system: Acinetobacter baumannii
How it was run: (§1)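 Read-out is the total-drug MIC of a 1:1 weight ratio combination with another agent, e.g. rifampicin. Duplicates within 2-fold gave the lower value; wider spread meant a non-valid assay. Where compounds were tested multiple times, the mode is given.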

Pseudomonas aeruginosa = system: Pseudomonas aeruginosa
How it was run: as §1

Escherichia coli = system: Escherichia coli
How it was run: as §1

Klebsiella pneumoniae = system: Klebsiella pneumoniae
How it was run: as §1

[1] = MIC = total drug concentration, strain ATCC BAA-747
[2] = MIC = total drug concentration, strain CCUG57249
[3] = MIC = total drug concentration, strain NCTC 13423
[4] = MIC = total drug concentration, strain NCTC 13424
[5] = MIC = total drug concentration, strain ATCC 27853
[6] = MIC = total drug concentration, strain ATCC-47
[7] = MIC = total drug concentration, strain CCUG 59626
[8] = MIC = total drug concentration, strain NCTC9001
[9] = MIC = total drug concentration, strain ATCC-BAA-2146
[10] = MIC = total drug concentration, strain CCUG-59348
[11] = MIC = total drug concentration, strain NCTC 13438
[12] = MIC = total drug concentration, strain ATCC CRM-9027
[13] = MIC = total drug concentration, strain ATCC25922
[14] = MIC is total drug concentration

SMILES	MIC A. baumannii ATCC BAA-747 (Acinetobacter baumannii; [1]) [micrograms/mL]	MIC A. baumannii CCUG57249 (Acinetobacter baumannii; [2]) [micrograms/mL]	MIC A. baumannii NCTC 13423 (Acinetobacter baumannii; [3]) [micrograms/mL]	MIC A. baumannii NCTC 13424 (Acinetobacter baumannii; [4]) [micrograms/mL]	MIC P. aeruginosa ATCC 27853 (Pseudomonas aeruginosa; [5]) [micrograms/mL]	MIC P. aeruginosa ATCC-47 (Pseudomonas aeruginosa; [6]) [micrograms/mL]	MIC P. aeruginosa CCUG 59626 (Pseudomonas aeruginosa; [7]) [micrograms/mL]	MIC E. coli NCTC9001 (Escherichia coli; [8]) [micrograms/mL]	MIC K. pneumoniae ATCC-BAA-2146 (Klebsiella pneumoniae; [9]) [micrograms/mL]	MIC K. pneumoniae CCUG-59348 (Klebsiella pneumoniae; [10]) [micrograms/mL]	MIC K. pneumoniae NCTC 13438 (Klebsiella pneumoniae; [11]) [micrograms/mL]	MIC P. aeruginosa ATCC CRM-9027 (Pseudomonas aeruginosa; [12]) [micrograms/mL]	MIC E. coli ATCC25922 (Escherichia coli; [13]) [micrograms/mL]	other results
CC(C)C[C@@H]1NC(=O)[C@@H](Cc2ccccc2)NC(=O)[C@H](CCN)NC(=O)[C@@H](NC(=O)[C@H](CCN)NC(=O)[C@@H](NC(=O)[C@H]2CC[C@@H](N)C2)C(C)O)CCNC(=O)[C@H](C(C)O)NC(=O)[C@H](CCN)NC(=O)[C@H](CCN)NC1=O (stereo partly drawn) [Example 34A, (1S,3R)-3- Aminocyclopentane carbonyl polymyxin B nonapeptide, trifluoroacetate salt] (X8-[Thr(3ξ)][Dab][Dab][Dab][dF]L[Dab][Dab][Thr(3ξ)]; lactam 3-C)	≤0.06	≤0.06	≤0.06	≤0.06	0.125	0.125	0.125	0.125	0.125	4	0.25	–	–	MIC P. aeruginosa ATCC CRM-9027 (Pseudomonas aeruginosa; MIC = total drug concentration, strain ATCC CRM-9027, trifluoroacetate salt): 0.125 micrograms/mL; MIC E. coli ATCC25922 (Escherichia coli; MIC = total drug concentration, strain ATCC25922, trifluoroacetate salt): ≤0.06 micrograms/mL
CC(C)C[C@@H]1NC(=O)[C@@H](Cc2ccccc2)NC(=O)[C@H](CCN)NC(=O)[C@@H](NC(=O)[C@H](CCN)NC(=O)[C@@H](NC(=O)C[C@H]2CC[C@@H](N)CC2)C(C)O)CCNC(=O)[C@H](C(C)O)NC(=O)[C@H](CCN)NC(=O)[C@H](CCN)NC1=O (stereo partly drawn) [Example 36, Cis-2-(4-aminocyclohexane) ethanoyl polymyxin B nonapeptide, trifluoroacetate salt] ({Acetyl(cis-4-NH-cyclohexyl)}-[Thr(3ξ)][Dab][Dab][Dab][dF]L[Dab][Dab][Thr(3ξ)]; lactam 3-C)	0.125	0.25	0.125	0.5	0.25	0.125	0.25	0.125	0.5	4	1	0.25	0.25	–
CC(C)C[C@@H]1NC(=O)[C@@H](Cc2ccccc2)NC(=O)[C@H](CCN)NC(=O)[C@@H](NC(=O)[C@H](CCN)NC(=O)[C@@H](NC(=O)C[C@@H]2CCCCN2)C(C)O)CCNC(=O)[C@H](C(C)O)NC(=O)[C@H](CCN)NC(=O)[C@H](CCN)NC1=O (stereo partly drawn) [Example 33, (2S)-piperidin-2-yl-ethanoyl polymyxin B nonapeptide, trifluoroacetate salt] (X5-[Thr(3ξ)][Dab][Dab][Dab][dF]L[Dab][Dab][Thr(3ξ)]; lactam 3-C)	≤0.06	≤0.06	≤0.06	≤0.06	≤0.06	≤0.06	≤0.06	0.125	0.125	2	0.125	≤0.06	≤0.06	MIC A. baumannii ATCC BAA-747 (Acinetobacter baumannii; [14]): ≤0.06 micrograms/mL; MIC A. baumannii CCUG57249 (Acinetobacter baumannii; [14]): ≤0.06 micrograms/mL; MIC A. baumannii NCTC 13423 (Acinetobacter baumannii; [14]): ≤0.06 micrograms/mL; MIC A. baumannii NCTC 13424 (Acinetobacter baumannii; [14]): ≤0.06 micrograms/mL; MIC P. aeruginosa ATCC 27853 (Pseudomonas aeruginosa; [14]): ≤0.06 micrograms/mL; MIC P. aeruginosa ATCC CRM-9027 (Pseudomonas aeruginosa; [14]): ≤0.06 micrograms/mL; MIC P. aeruginosa ATCC-47 (Pseudomonas aeruginosa; [14]): ≤0.06 micrograms/mL; MIC P. aeruginosa CCUG 59626 (Pseudomonas aeruginosa; [14]): ≤0.06 micrograms/mL; MIC E. coli ATCC25922 (Escherichia coli; [14]): ≤0.06 micrograms/mL; MIC E. coli NCTC9001 (Escherichia coli; [14]): 0.125 micrograms/mL; MIC K. pneumoniae ATCC-BAA-2146 (Klebsiella pneumoniae; [14]): 0.125 micrograms/mL; MIC K. pneumoniae CCUG-59348 (Klebsiella pneumoniae; [14]): 2 micrograms/mL; MIC K. pneumoniae NCTC 13438 (Klebsiella pneumoniae; [14]): 0.125 micrograms/mL
CC(C)C[C@@H]1NC(=O)[C@@H](Cc2ccccc2)NC(=O)[C@H](CCN)NC(=O)[C@@H](NC(=O)[C@@H](CO)NC(=O)[C@@H](NC(=O)C(O)C2CCCCC2)C(C)O)CCNC(=O)[C@H](C(C)O)NC(=O)[C@H](CCN)NC(=O)[C@H](CCN)NC1=O (stereo partly drawn) [Example 46, [2-cyclohexyl-2-hydroxyethanoyl]-L-Thr-D-Ser-polymyxin B heptapeptide, TFA salt] (ξHexahydromandeloyl-[Thr(3ξ)][dS][Dab][Dab][dF]L[Dab][Dab][Thr(3ξ)]; lactam 3-C)	≤0.06	0.125	0.125	≤0.06	1	2	1	0.25	1	2	–	1	0.125	MIC K. pneumoniae ATCC 4352 (Klebsiella pneumoniae; MIC = total drug concentration, strain ATCC 4352): 0.125 micrograms/mL
